Data taken from patent US6953813B1, “2-Aminotetralin derivatives for the therapy of glaucoma” (Chiesi Farmaceutici S.p.A., priority 1999, dated 2005).

System: normotensive Dutch Belted rabbits
Assay: Intraocular pressure (IOP) after single dose in normotensive rabbits
Format: in vivo, rabbit
Method: Water (pH 4.5, made isotonic with sodium chloride), was selected as vehicle for the IOP-studies.
Five concentrations (0.01, 0.05, 0.2, 0.5 and 1.0% w/v) of CHF 1035 were studied. Brimonidine (0.2% w/v) was used as a positive, and vehicle (water pH 4.5) as a negative control.
The experimental animals used were normotensive Dutch Belted rabbits of either gender (n=6). A single drop (25 μl) of the test solution was instilled unilaterally into the left eye (treated eye). IOP of the rabbits (treated and untreated eyes) was measured at 1 and 0 h before, and at 0.5, 1, 2, 3, 4, 5, 6 and 7 h after topical eyedrop administration. IOP at the time of eyedrop administration (0 h) was used as a baseline value. IOP was measured using a BioRad Pneumatonometer. More detailed description of the IOP measurement procedure can be found in Pharm. Res. 14, 1738-1743, 1997 and Curr. Eye Res. 14, 791-797, 1995. All the studies were set up using a randomized crossover design. At least 72 h of wash-out time was allowed for each rabbit between dosings. The irritation caused by an instilled eyedrop were evaluated by recording the extent of eyelid closure after topical eyedrop administration.

SMILES: CNC1CCc2c(ccc(OC(=O)C(C)C)c2OC(=O)C(C)C)C1 (racemic) [CHF 1035, (±)-(R,S)-5,6-diisobutyryloxy-2-methylaminotetralin]
- IOP changes (mean ± SEM) in the treated eye (1.0% w/v, 180 min): −3.2 ± 1.8 mmHg
- IOP changes (mean ± SEM) in the treated eye (1.0% w/v, 240 min): −4.9 ± 1.5 mmHg
- IOP changes (mean ± SEM) in the treated eye (1.0% w/v, 300 min): −5.8 ± 1.6 mmHg
- IOP changes (mean ± SEM) in the treated eye (1.0% w/v, 360 min): −6.6 ± 1.6 mmHg
- IOP changes (mean ± SEM) in the treated eye (1.0% w/v, 420 min): −5.3 ± 1.5 mmHg
- IOP changes (mean ± SEM) in the untreated eye (0.01% w/v, 0 min): 0.0 ± 0.0 mmHg
- IOP changes (mean ± SEM) in the untreated eye (0.01% w/v, 30 min): −1.0 ± 1.1 mmHg
- IOP changes (mean ± SEM) in the untreated eye (0.01% w/v, 60 min): −1.9 ± 1.2 mmHg
- IOP changes (mean ± SEM) in the untreated eye (0.01% w/v, 120 min): −1.6 ± 1.0 mmHg
- IOP changes (mean ± SEM) in the untreated eye (0.01% w/v, 180 min): −0.5 ± 0.7 mmHg
- IOP changes (mean ± SEM) in the untreated eye (0.01% w/v, 240 min): −1.4 ± 0.7 mmHg
- IOP changes (mean ± SEM) in the untreated eye (0.01% w/v, 300 min): −1.7 ± 0.4 mmHg
- IOP changes (mean ± SEM) in the untreated eye (0.01% w/v, 360 min): 0.0 ± 0.6 mmHg
- IOP changes (mean ± SEM) in the untreated eye (0.01% w/v, 420 min): 0.4 ± 0.7 mmHg
- IOP changes (mean ± SEM) in the untreated eye (0.05% w/v, 0 min): 0.0 ± 0.0 mmHg
- IOP changes (mean ± SEM) in the untreated eye (0.05% w/v, 30 min): 0.0 ± 0.6 mmHg
- IOP changes (mean ± SEM) in the untreated eye (0.05% w/v, 60 min): 0.1 ± 0.7 mmHg
- IOP changes (mean ± SEM) in the untreated eye (0.05% w/v, 120 min): −1.5 ± 0.8 mmHg
- IOP changes (mean ± SEM) in the untreated eye (0.05% w/v, 180 min): −0.4 ± 1.0 mmHg
- IOP changes (mean ± SEM) in the untreated eye (0.05% w/v, 240 min): −1.0 ± 0.4 mmHg
- IOP changes (mean ± SEM) in the untreated eye (0.05% w/v, 300 min): −1.9 ± 0.9 mmHg
- IOP changes (mean ± SEM) in the untreated eye (0.05% w/v, 360 min): −0.6 ± 1.2 mmHg
- IOP changes (mean ± SEM) in the untreated eye (0.05% w/v, 420 min): 0.3 ± 0.7 mmHg
- IOP changes (mean ± SEM) in the untreated eye (0.2% w/v, 0 min): 0.0 ± 0.0 mmHg
- IOP changes (mean ± SEM) in the untreated eye (0.2% w/v, 30 min): 1.0 ± 0.8 mmHg
- IOP changes (mean ± SEM) in the untreated eye (0.2% w/v, 60 min): 0.5 ± 1.2 mmHg
- IOP changes (mean ± SEM) in the untreated eye (0.2% w/v, 120 min): 0.0 ± 0.9 mmHg
- IOP changes (mean ± SEM) in the untreated eye (0.2% w/v, 180 min): −1.5 ± 1.2 mmHg
- IOP changes (mean ± SEM) in the untreated eye (0.2% w/v, 240 min): −1.6 ± 1.1 mmHg
- IOP changes (mean ± SEM) in the untreated eye (0.2% w/v, 300 min): −1.1 ± 1.1 mmHg
- IOP changes (mean ± SEM) in the untreated eye (0.2% w/v, 360 min): −0.7 ± 1.0 mmHg
- IOP changes (mean ± SEM) in the untreated eye (0.2% w/v, 420 min): 0.0 ± 0.8 mmHg
- IOP changes (mean ± SEM) in the untreated eye (0.5% w/v, 0 min): 0.0 ± 0.0 mmHg
- IOP changes (mean ± SEM) in the untreated eye (0.5% w/v, 30 min): 2.9 ± 0.8 mmHg
- IOP changes (mean ± SEM) in the untreated eye (0.5% w/v, 60 min): 2.4 ± 0.7 mmHg
- IOP changes (mean ± SEM) in the untreated eye (0.5% w/v, 120 min): 1.4 ± 0.4 mmHg
- IOP changes (mean ± SEM) in the untreated eye (0.5% w/v, 180 min): 0.0 ± 0.5 mmHg
- IOP changes (mean ± SEM) in the untreated eye (0.5% w/v, 240 min): −0.2 ± 0.7 mmHg
- IOP changes (mean ± SEM) in the untreated eye (0.5% w/v, 300 min): −0.9 ± 0.4 mmHg
- IOP changes (mean ± SEM) in the untreated eye (0.5% w/v, 360 min): −0.7 ± 0.6 mmHg
- IOP changes (mean ± SEM) in the untreated eye (0.5% w/v, 420 min): −0.2 ± 0.3 mmHg
- IOP changes (mean ± SEM) in the untreated eye (1.0% w/v, 0 min): 0.0 ± 0.0 mmHg
- IOP changes (mean ± SEM) in the untreated eye (1.0% w/v, 30 min): 2.2 ± 0.9 mmHg
- IOP changes (mean ± SEM) in the untreated eye (1.0% w/v, 60 min): 1.2 ± 1.2 mmHg
- IOP changes (mean ± SEM) in the untreated eye (1.0% w/v, 120 min): 1.0 ± 0.8 mmHg
- IOP changes (mean ± SEM) in the untreated eye (1.0% w/v, 180 min): −2.5 ± 1.3 mmHg
- IOP changes (mean ± SEM) in the untreated eye (1.0% w/v, 240 min): −1.8 ± 0.6 mmHg
- IOP changes (mean ± SEM) in the untreated eye (1.0% w/v, 300 min): −0.7 ± 0.8 mmHg
- IOP changes (mean ± SEM) in the untreated eye (1.0% w/v, 360 min): −0.2 ± 1.1 mmHg
- IOP changes (mean ± SEM) in the untreated eye (1.0% w/v, 420 min): −0.9 ± 1.0 mmHg
